In brackets after ≈: the same amount, converted by molar mass.
Columns and labels:
HeLa cells = experiment: cells; assay type: cell-based, human; conditions: for IC50: Homo sapiens, 24 h, read-out: IC50 (µM) HeLa; for selectivity index (SI) HeLa: efficacy against HeLa versus normal fibroblasts L929, SI > 1.0 = greater efficacy against cancer cells
Procedure: (§1) Considering our previous research and the literature reports on the antitumor activity of aziridine derivatives, aziridine phosphines (1–4) and aziridine phosphine oxides (5–9) were tested to investigate their potential anticancer activity. The in vitro effects on cell viability were assessed using the 3-(4,5-dimethylthiazol-2-yl)-2,5-diphenyltetrazolium bromide (MTT) assay on non-tumorigenic murine fibroblasts (L929) as well as two cancer cell lines: human cervical epithelioid carcinoma (HeLa) cells and endometrial adenocarcinoma (Ishikawa) cells.
(§2) Cell viability inhibition: The in vitro effects on cell viability were determined using the 3-(4,5-dimethylthiazol-2-yl)-2,5-diphenyltetrazolium bromide (MTT) assay on non-tumorigenic murine fibroblasts L929 (ATTC®—CCL-1) as well as two cancer cell lines: human cervical epithelioid carcinoma HeLa cells (ATTC®—CCL-2™) and endometrial adenocarcinoma Ishikawa cells (ECACC 99040201). Cells were cultured on 96-well microplates at a density of 1 × 10^4 cells/well following the international in Dulbecco’s Modified Eagle’s Medium (DMEM, Biowest) supplemented with 10% fetal bovine serum (FBS, Biowest, Nuaillé, France), 100 U/mL of penicillin, and 100 μg/mL of streptomycin (Biowest, Nuaillé, France). After overnight incubation at 37 °C and 5% CO2, the growth medium was removed and 100 μL of fresh media with two-fold dilutions of the tested compounds at concentrations of 3.125–100 μM were added. […] Untreated cells in medium were used as a positive control, while a clear culture medium served as a negative control.

Ishikawa cells = experiment: cells; assay type: cell-based, human; conditions: for IC50: Homo sapiens, Ishikawa, 24 h, read-out: IC50 (µM) Ishikawa; for selectivity index (SI) Ishikawa: efficacy against Ishikawa versus normal fibroblasts L929, SI > 1.0 = greater efficacy against cancer cells
Procedure: as §1, §2

[1] = tested on: Staphylococcus aureus ATCC 6538; experiment: MIC, two-fold microdilution (EUCAST), S. aureus reference strain; assay type: cell-based; conditions: Staphylococcus aureus, ATCC6538, 18 h, read-out: MIC (µM) Staphylococcus aureus ATCC 6538
From the text: (§3) A panel of reference bacteria, including Escherichia coli NCTC 8196, Staphylococcus aureus ATCC 6538, Klebsiella pneumoniae ATCC 13883, and Pseudomonas aeruginosa NCTC 6749, was used to assess the antibacterial activity of the nine tested aziridine phosphines (1–4) and aziridine phosphine oxides (5–9). The two-fold microdilution method, following EUCAST guidelines, was used to determine a minimal inhibitory concentration (MIC) of each compound, as presented in Table S1.
(§4) Antibacterial activity: The in vitro antibacterial activity of nine tested aziridine phosphines (1–4) and aziridine phosphine oxides (5–9) was evaluated against reference bacterial strains (E. coli NCTC 8196, S. aureus ATCC 6538, K. pneumoniae ATCC 13883, P. aeruginosa NCTC 6749) and 12 S. aureus clinical isolates, including two methicillin-resistant isolates (MRSA, D15 and D17) obtained from infected patients hospitalized at the Oncological Hospital in Lodz (Poland). All strains were kept frozen at −80 °C in Tryptic Soy Broth with 15% glycerol. The minimal inhibitory concentration (MIC) is defined as the lowest concentration of the compound that prevents visible growth of bacteria using the microdilution method followed the EUCAST guidelines. Each compound was added to 96-well microplates in two-fold dilutions at concentrations from 3.125 to 100 μM in Mueller–Hinton broth. […] Bacterial culture was added into wells at a density of 5 × 10^5 CFU mL^−1, and plates were incubated at 37 °C for 18 h. As a positive control, an untreated bacterial culture was used, and a clear culture medium served as a negative control. The optical density at OD600 was measured using the SpectraMax i3 Multi-Mode Platform (Molecular Devices, San Jose, CA, USA). Ciprofloxacin hydrochloride (CIP, Sigma-Aldrich, Darmstadt, Germany) was used as a reference antimicrobial drug.

[2] = tested on: Klebsiella pneumoniae ATCC 13883; experiment: MIC, two-fold microdilution (EUCAST), K. pneumoniae reference strain; assay type: cell-based; conditions: Klebsiella pneumoniae, ATCC13883, 18 h, read-out: MIC (µM) Klebsiella pneumoniae ATCC 13883
From the text: as §3, §4

[3] = tested on: Pseudomonas aeruginosa NCTC 6749; experiment: MIC, two-fold microdilution (EUCAST), P. aeruginosa reference strain; assay type: cell-based; conditions: Pseudomonas aeruginosa, NCTC6749, 18 h, read-out: MIC (µM) Pseudomonas aeruginosa NCTC 6749
From the text: as §3, §4

Row | Compound | IC50 (HeLa cells) [µM] | selectivity index (SI) HeLa (HeLa cells) | IC50 (Ishikawa cells) [µM] | selectivity index (SI) Ishikawa (Ishikawa cells) | MIC [1] [µM] | MIC [2] [µM] | MIC [3] [µM]
1 | CC(C)[C@@H]1CN1c1ccccc1P(=O)(c1ccccc1)c1ccccc1 [Compound 5] | 6.4 ± 2.1 | 1.7 | 4.6 ± 2.3 | 2.3 | 50 (≈ 18.1 µg/mL) | > 100 | > 100
2 | CC(C)C[C@H]1CN1c1ccccc1P(=O)(c1ccccc1)c1ccccc1 [Compound 7] | 7.1 ± 2.6 | 2.5 | 10.5 ± 3.1 | 1.7 | 50 (≈ 18.8 µg/mL) | > 100 | > 100

From PMC11012799 (Molecules, 2024)
